# Test system: bean seeds
# Experiment: Plant growth and yield from bean seeds, daylight or darkness (Example 2)
# Assay type: in vivo
# Method: Three different treatments were explored on bean seeds to determine the effects of ribose (at two different doses) on plant growth and proliferation. [The three treatments include control (plain water), a 0.1332 M solution of ribose (5 g D-ribose dissolved in 250 ml water), and a 0.0666 M solution of ribose (5 g D-ribose dissolved in 500 ml water)]. The plants were kept under two different conditions, normal daylight and darkness. A total of six plants will be tested, with the conditions that each plant were tested at listed below. Treatments: [table] Each seed was planted under identical conditions (soil and pot size) and all at the same time. The environmental conditions (such as temperature and humidity), except for lighting, were kept constant for all the plants. Once potted, each seed received one to two tablespoons of treatment liquid (as mentioned above). A daily record was kept of the activity of each plant. Watering was done on every other day (or sooner if the soil was deemed too dry by the researcher), each again receiving one tablespoon of treatment liquid. Assessment of the effects of ribose fertilization was determined by measuring the time to the first appearance of a plant from the soil, the rate of growth, and leaf size. Table 3 represents the accumulated plant growth data from Example 2 and FIGS. 3 and 4 are graphic presentations of plant growth during light and dark conditions.
compound,measurement,setting,value
"O=C[C@H](O)[C@H](O)[C@H](O)CO [5/250, D-ribose]",Amount of Growth Between Measurements,"Dark, Day 0 (17-Sep)",0
same,Plant growth-height,"Dark, Day 0 (17-Sep)",0
same,Rate of Growth Between Measurements,"Dark, Day 0 (17-Sep)",0
same,Amount of Growth Between Measurements,"Dark, Day 3 (20-Sep)",0
same,Plant growth-height,"Dark, Day 3 (20-Sep)",0
same,Rate of Growth Between Measurements,"Dark, Day 3 (20-Sep)",0
same,Amount of Growth Between Measurements,"Dark, Day 5 (22-Sep)",0
same,Plant growth-height,"Dark, Day 5 (22-Sep)",0
same,Rate of Growth Between Measurements,"Dark, Day 5 (22-Sep)",0
same,Rate of Growth Overall Thru Date,"Dark, Day 5 (22-Sep)",0
same,Amount of Growth Between Measurements,"Dark, Day 7 (24-Sep)",4.4
same,Plant growth-height,"Dark, Day 7 (24-Sep)",4.4
same,Rate of Growth Between Measurements,"Dark, Day 7 (24-Sep)",2.20
same,Rate of Growth Overall Thru Date,"Dark, Day 7 (24-Sep)",0.63
same,Amount of Growth Between Measurements,"Dark, Day 8 (25-Sep)",4.1
same,Plant growth-height,"Dark, Day 8 (25-Sep)",8.5
same,Rate of Growth Between Measurements,"Dark, Day 8 (25-Sep)",4.10
same,Rate of Growth Overall Thru Date,"Dark, Day 8 (25-Sep)",1.06
same,Amount of Growth Between Measurements,"Dark, Day 9 (26-Sep)",4.7
same,Plant growth-height,"Dark, Day 9 (26-Sep)",13.2
same,Rate of Growth Between Measurements,"Dark, Day 9 (26-Sep)",4.70
same,Rate of Growth Overall Thru Date,"Dark, Day 9 (26-Sep)",1.47
same,Amount of Growth Between Measurements,"Dark, Day 10 (27-Sep)",2.1
same,Plant growth-height,"Dark, Day 10 (27-Sep)",15.3
same,Rate of Growth Between Measurements,"Dark, Day 10 (27-Sep)",2.10
same,Rate of Growth Overall Thru Date,"Dark, Day 10 (27-Sep)",1.53
same,Amount of Growth Between Measurements,"Dark, Day 11 (28-Sep)",2.3
same,Plant growth-height,"Dark, Day 11 (28-Sep)",17.6
same,Rate of Growth Between Measurements,"Dark, Day 11 (28-Sep)",2.30
same,Rate of Growth Overall Thru Date,"Dark, Day 11 (28-Sep)",1.60
same,Amount of Growth Between Measurements,"Dark, Day 12 (29-Sep)",2
same,Plant growth-height,"Dark, Day 12 (29-Sep)",19.6
same,Rate of Growth Between Measurements,"Dark, Day 12 (29-Sep)",2.00
same,Rate of Growth Overall Thru Date,"Dark, Day 12 (29-Sep)",1.63
same,Amount of Growth Between Measurements,"Dark, Day 13 (30-Sep)",1.5
same,Plant growth-height,"Dark, Day 13 (30-Sep)",21.1
same,Rate of Growth Between Measurements,"Dark, Day 13 (30-Sep)",1.50
same,Rate of Growth Overall Thru Date,"Dark, Day 13 (30-Sep)",1.62
same,Amount of Growth Between Measurements,"Dark, Day 16 (3-Oct)",3.6
same,Plant growth-height,"Dark, Day 16 (3-Oct)",24.7
same,Rate of Growth Between Measurements,"Dark, Day 16 (3-Oct)",1.20
same,Rate of Growth Overall Thru Date,"Dark, Day 16 (3-Oct)",1.54
same,Amount of Growth Between Measurements,"Light, Day 0 (17-Sep)",0
same,Plant growth-height,"Light, Day 0 (17-Sep)",0
same,Rate of Growth Between Measurements,"Light, Day 0 (17-Sep)",0
same,Amount of Growth Between Measurements,"Light, Day 3 (20-Sep)",0
same,Plant growth-height,"Light, Day 3 (20-Sep)",0
same,Rate of Growth Between Measurements,"Light, Day 3 (20-Sep)",0
same,Amount of Growth Between Measurements,"Light, Day 5 (22-Sep)",1.1
same,Plant growth-height,"Light, Day 5 (22-Sep)",1.1
same,Rate of Growth Between Measurements,"Light, Day 5 (22-Sep)",0.55
same,Rate of Growth Overall Thru Date,"Light, Day 5 (22-Sep)",0.22
same,Amount of Growth Between Measurements,"Light, Day 7 (24-Sep)",4.4
same,Plant growth-height,"Light, Day 7 (24-Sep)",5.5
same,Rate of Growth Between Measurements,"Light, Day 7 (24-Sep)",2.20
same,Rate of Growth Overall Thru Date,"Light, Day 7 (24-Sep)",0.79
same,Amount of Growth Between Measurements,"Light, Day 8 (25-Sep)",9.5
same,Plant growth-height,"Light, Day 8 (25-Sep)",15
same,Rate of Growth Between Measurements,"Light, Day 8 (25-Sep)",9.50
same,Rate of Growth Overall Thru Date,"Light, Day 8 (25-Sep)",1.88
same,Amount of Growth Between Measurements,"Light, Day 9 (26-Sep)",4.1
same,Plant growth-height,"Light, Day 9 (26-Sep)",19.1
same,Rate of Growth Between Measurements,"Light, Day 9 (26-Sep)",4.10
same,Rate of Growth Overall Thru Date,"Light, Day 9 (26-Sep)",2.12
same,Amount of Growth Between Measurements,"Light, Day 10 (27-Sep)",4
same,Plant growth-height,"Light, Day 10 (27-Sep)",23.1
same,Rate of Growth Between Measurements,"Light, Day 10 (27-Sep)",4.00
same,Rate of Growth Overall Thru Date,"Light, Day 10 (27-Sep)",2.31
same,Amount of Growth Between Measurements,"Light, Day 11 (28-Sep)",2.6
same,Plant growth-height,"Light, Day 11 (28-Sep)",25.7
same,Rate of Growth Between Measurements,"Light, Day 11 (28-Sep)",2.60
same,Rate of Growth Overall Thru Date,"Light, Day 11 (28-Sep)",2.34
same,Amount of Growth Between Measurements,"Light, Day 12 (29-Sep)",0.7
same,Plant growth-height,"Light, Day 12 (29-Sep)",26.4
same,Rate of Growth Between Measurements,"Light, Day 12 (29-Sep)",0.70
same,Rate of Growth Overall Thru Date,"Light, Day 12 (29-Sep)",2.20
same,Amount of Growth Between Measurements,"Light, Day 13 (30-Sep)",0.2
same,Plant growth-height,"Light, Day 13 (30-Sep)",26.6
same,Rate of Growth Between Measurements,"Light, Day 13 (30-Sep)",0.20
same,Rate of Growth Overall Thru Date,"Light, Day 13 (30-Sep)",2.05
same,Amount of Growth Between Measurements,"Light, Day 16 (3-Oct)",1.7
same,Plant growth-height,"Light, Day 16 (3-Oct)",28.3
same,Rate of Growth Between Measurements,"Light, Day 16 (3-Oct)",0.57
same,Rate of Growth Overall Thru Date,"Light, Day 16 (3-Oct)",1.77
same,Amount of Growth Between Measurements,"Light, Day 19 (6-Oct)",−0.7
same,Plant growth-height,"Light, Day 19 (6-Oct)",27.6
same,Rate of Growth Between Measurements,"Light, Day 19 (6-Oct)",−0.23
same,Rate of Growth Overall Thru Date,"Light, Day 19 (6-Oct)",1.45
